Measurements: patent publication US11020400B2, “Tetrahydropyranyl amino-pyrrolopyrimidinone and methods of use thereof” (ArQule, Inc., priority 2015, dated 2021)

Columns and labels:
TMD-8 cells = assay: Anti-Proliferation Assay (MTS), TMD-8 cells; assay type: cell-based; conditions: Homo sapiens, TMD8, treated for 72 hours, MTS cell survival
Method: (§1) Cell survival is determined by a MTS assay. Briefly, cells (i.e., TMD-8 cells or Rec-1 cells) are plated in a 96-well plate, cultured in complete growth medium, and then treated with various drugs and drug combinations. MTS/PMS is added and incubated, followed by assessment of cell viability using the microplate reader. Data is normalized to untreated controls and analyzed with Microsoft Excel.
(§2) Cell survival was determined by the MTS assay. Briefly, cells (i.e., TMD-8 cells or Rec-1 cells) were plated in a 96-well plate at 2,000-10,000 cells per well, cultured for 24 hours in complete growth medium, and then treated with various drugs and drug combinations for 72 hours. MTS/PMS was added and incubated for 4 hour, followed by assessment of cell viability using the microplate reader (absorbance at 490 nm). Data were normalized to untreated controls and analyzed with Microsoft Excel.

Rec-1 cells = assay: Anti-Proliferation Assay (MTS), Rec-1 cells; assay type: cell-based; conditions: Homo sapiens, Rec1, treated for 72 hours, MTS cell survival
Method: as §1, §2

**Q.** Which IC50 (TMD-8 cells) does the source give for `O=C(c1ccc(Oc2ccccc2)cc1Cl)c1c[nH]c2ncnc(N[C@@H]3CC[C@@H](CO)OC3)c12` [Compound (I), (2-chloro-4-phenoxyphenyl)(4-(((3R,6S)-6-(hydroxymethyl)tetrahydro-2H-pyran-3-yl)amino)-7H-pyrrolo[2,3-d]pyrimidin-5-yl)methanone] here?
**A.** 130 ± 60 nM

**Q.** What about the IC50 (Rec-1 cells) of the same compound?
**A.** 180 ± 70 nM
